Laboratory results from patent publication US20260201008A1, “SECRETIN-DERIVED GLP1R SELECTIVE AGONISTS” (GUBRA A/S, priority 2023, published 2026).
Like-named read-outs stand apart in the source and are kept apart here. Numbered stars: 1 amine (or outer) side, 2 acyl side, 3 side chain; on linkers, the order of the positions; unused ones are H or OH. Square brackets hold non-standard residues; d marks the D form. Side chains are listed from the residue outwards. Peptide text beside a SMILES is read from it. * marks the point of attachment. C20 diacid = O=C(O)CCCCCCCCCCCCCCCCCCC(=O)*; γGlu = O=C(O)[C@H](CCC(=O)[*:2])N[*:1]; AEEA = NCCOCCOCC(=O)O; Aib = CC(C)(N)C(=O)O

Columns and labels:
[1] = biological target: GLP1R (Homo sapiens, UniProt P43220); assay: hGLP1R potency, cAMP accumulation in CHO-K1 cells stably overexpressing hGLP1R; assay type: cell-based; parameters: host or cells: CHO-K1; conditions: for EC50: cAMP accumulation; for SCTR EC50/GLP1R EC50 ratio: cAMP accumulation in CHO-K1 cells; for Selectivity: SCTR EC50/GLP1R EC50 ratio
How it was run: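 2000 cells/well, DPBS + 0.05% casein + 0.5 mM IBMX; 30 min RT stimulation; HTRF cAMP detection after 1 h. Purified: 3-fold ×11, n=2; crude: 10-fold ×5, n=1. EC50 by variable-slope fit.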

[2] = Fibril formation of crude library peptides (Thioflavin T); assay type: physicochemical; parameters: key: average ThT fluorescence emission at 480 nm (ex 450 nm), raw units; conditions: Physical stability of peptides
How it was run: (§1)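 Turbidity is the absorbance at 600 nm, taken before heating. Fibril signal is the mean ThT emission at 480 nm (450 nm excitation), read every 10 min over 72 h at 40° C with 700 rpm shaking between reads. Peptides at 267 μM, pH 4.0 acetate or pH 7.0 phosphate buffer (50 mM), 4 μM ThT final.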

[3] = biological target: SCTR (Homo sapiens, UniProt P47872); assay: hSCTR potency, cAMP accumulation in CHO-K1 cells stably overexpressing hSCTR; assay type: cell-based; parameters: alternatively Euroscreen ES-712-AF; FAST-0161L; host or cells: CHO-K1; conditions: cAMP accumulation
How it was run: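 Thawed CHO-K1 cells carrying stable hSCTR are plated into casein/IBMX buffer (0.05%, 0.5 mM), dosed immediately for 30 min at room temperature, then cAMP is detected by TR-FRET. Purified peptides run as 11 three-fold dilutions in duplicate, and curves are fitted with variable slope.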

[4] = Turbidity of crude library peptides (absorbance at 600 nm); assay type: physicochemical; conditions: Physical stability of peptides
How it was run: as §1

[5] = CHO-K1 cells overexpressing hGLP1R, read-out: hGLP1R pEC50 (converted)
[6] = selectivity for hGLP1R over hSCTR
[7] = CHO-K1 cells overexpressing hSCTR, read-out: hSCTR pEC50 (converted)
[8] = CHO-K1 cells overexpressing hGLP1R, read-out: pEC50 hGLPR1 (converted)
[9] = CHO-K1 cells overexpressing hSCTR, read-out: pEC50 hSCTR (converted)

GLP1R, sequence (P43220 24-463): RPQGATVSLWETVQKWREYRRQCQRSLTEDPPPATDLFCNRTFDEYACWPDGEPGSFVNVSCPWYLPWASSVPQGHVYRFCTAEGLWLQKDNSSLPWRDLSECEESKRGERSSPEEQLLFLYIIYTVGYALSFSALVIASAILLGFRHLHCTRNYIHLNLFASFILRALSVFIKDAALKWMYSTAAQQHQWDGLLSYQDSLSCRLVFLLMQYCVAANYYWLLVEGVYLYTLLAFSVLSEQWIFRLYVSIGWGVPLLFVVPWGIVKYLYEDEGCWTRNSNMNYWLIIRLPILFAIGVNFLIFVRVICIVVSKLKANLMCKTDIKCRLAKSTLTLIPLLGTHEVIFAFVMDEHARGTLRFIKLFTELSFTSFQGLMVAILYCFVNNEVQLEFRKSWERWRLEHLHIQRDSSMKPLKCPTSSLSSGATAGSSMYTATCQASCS
SCTR, sequence (P47872 23-440): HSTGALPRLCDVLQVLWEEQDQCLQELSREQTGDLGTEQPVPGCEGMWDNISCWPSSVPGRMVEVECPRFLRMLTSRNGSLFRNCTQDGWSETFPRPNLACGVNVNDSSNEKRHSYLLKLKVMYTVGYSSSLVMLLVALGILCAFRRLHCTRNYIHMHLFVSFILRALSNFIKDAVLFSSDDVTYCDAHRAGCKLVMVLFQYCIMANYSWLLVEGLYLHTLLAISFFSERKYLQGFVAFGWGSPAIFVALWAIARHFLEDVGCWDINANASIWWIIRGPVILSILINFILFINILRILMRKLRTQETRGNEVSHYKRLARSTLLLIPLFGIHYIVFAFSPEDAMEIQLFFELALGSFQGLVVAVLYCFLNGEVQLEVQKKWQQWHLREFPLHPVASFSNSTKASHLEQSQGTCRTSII

| SMILES | EC50 ([1]; CHO-K1 cells stably overexpressing hGLP1R, read-out: hGLP1R potency (pEC50) (converted)) | SCTR EC50/GLP1R EC50 ratio ([1]; selectivity ratio, hSCTR vs hGLP1R) | Fibril formation [2] | EC50 ([3]; CHO-K1 cells stably overexpressing hSCTR, read-out: hSCTR potency (pEC50) (converted)) | Turbidity (pH 7) [4] | EC50 [1, 5] | SCTR EC50/GLP1R EC50 ratio [1, 6] | EC50 [3, 7] | Selectivity [1] | EC50 [1, 8] | EC50 [3, 9] |
| --- | --- | --- | --- | --- | --- | --- | --- | --- | --- | --- | --- |
| CC[C@H](C)[C@H](NC(=O)[C@H](Cc1ccccc1)NC(=O)[C@H](CCCNC(=N)N)NC(=O)[C@H](CCC(N)=O)NC(=O)[C@H](CC(C)C)NC(=O)[C@H](C)NC(=O)[C@H](C)NC(=O)CNC(=O)[C@H](CCC(=O)O)NC(=O)[C@H](CC(C)C)NC(=O)[C@H](CC(C)C)NC(=O)[C@H](CCC(=O)O)NC(=O)[C@H](CO)NC(=O)[C@H](Cc1c[nH]c2ccccc12)NC(=O)[C@H](CC(=O)O)NC(=O)[C@H](CO)NC(=O)[C@@H](NC(=O)[C@H](Cc1ccccc1)NC(=O)[C@@H](NC(=O)CNC(=O)[C@H](CCC(=O)O)NC(=O)C(C)(C)NC(=O)[C@@H](N)Cc1c[nH]cn1)[C@@H](C)O)[C@@H](C)O)C(=O)N[C@@H](CCC(N)=O)C(=O)N[C@@H](Cc1c[nH]c2ccccc12)C(=O)N[C@@H](CC(C)C)C(=O)N[C@H](C(N)=O)C(C)C [compound 193] (H-H[Aib]EGTFTSDWSELLEGAALQRFIQWLV-NH2) | 0.0251 nM | 558 | 26948 | 12.6 nM | 0.13 |  |  |  |  |  |  |
| CC(C)C[C@H](NC(=O)[C@H](Cc1ccccc1)NC(=O)[C@H](CCCNC(=N)N)NC(=O)[C@H](CCC(N)=O)NC(=O)[C@H](CC(C)C)NC(=O)C(C)(C)NC(=O)[C@H](C)NC(=O)[C@H](CCC(=O)O)NC(=O)[C@H](CCC(=O)O)NC(=O)[C@H](CCCCNC(=O)COCCOCCNC(=O)COCCOCCNC(=O)CC[C@H](NC(=O)CCCCCCCCCCCCCCCCCCC(=O)O)C(=O)O)NC(=O)[C@H](CC(C)C)NC(=O)[C@H](Cc1ccc(O)cc1)NC(=O)[C@H](CO)NC(=O)[C@@H](NC(=O)[C@H](CC(=O)O)NC(=O)[C@H](CO)NC(=O)[C@@H](NC(=O)[C@H](Cc1ccccc1)NC(=O)[C@@H](NC(=O)CNC(=O)[C@H](CCC(=O)O)NC(=O)C(C)(C)NC(=O)[C@@H](N)Cc1c[nH]cn1)[C@@H](C)O)[C@@H](C)O)C(C)C)C(=O)N[C@@H](CCC(=O)O)C(=O)N[C@@H](Cc1ccc(O)cc1)C(=O)N[C@@H](CC(C)C)C(=O)N[C@H](C(N)=O)C(C)C [compound 144] (H-H[Aib]EGTFTSDVSYLK([AEEA-AEEA-γGlu-C20 diacid])EEA[Aib]LQRFLEYLV-NH2) |  |  | 5805 |  | 0.08 | 0.0158 nM | 16042 | 251 nM |  |  |  |
| CC(C)C[C@H](NC(=O)[C@H](Cc1ccccc1)NC(=O)[C@H](CCCNC(=N)N)NC(=O)[C@H](CCC(N)=O)NC(=O)[C@H](CC(C)C)NC(=O)C(C)(C)NC(=O)[C@H](C)NC(=O)[C@H](CCC(=O)O)NC(=O)[C@H](CCC(=O)O)NC(=O)[C@H](CCCCNC(=O)COCCOCCNC(=O)COCCOCCNC(=O)CC[C@H](NC(=O)CCCCCCCCCCCCCCCCCCC(=O)O)C(=O)O)NC(=O)[C@H](CC(C)C)NC(=O)[C@H](Cc1ccc(O)cc1)NC(=O)[C@H](CO)NC(=O)[C@@H](NC(=O)[C@H](CC(=O)O)NC(=O)[C@H](CO)NC(=O)[C@@H](NC(=O)[C@H](Cc1ccccc1)NC(=O)[C@@H](NC(=O)CNC(=O)[C@@H](NC(=O)C(C)(C)NC(=O)[C@@H](N)Cc1c[nH]cn1)C(C)C)[C@@H](C)O)[C@@H](C)O)C(C)C)C(=O)N[C@@H](CCC(=O)O)C(=O)N[C@@H](Cc1c[nH]cn1)C(=O)N[C@@H](CC(C)C)C(=O)N[C@H](C(N)=O)C(C)C [compound 155] (H-H[Aib]VGTFTSDVSYLK([AEEA-AEEA-γGlu-C20 diacid])EEA[Aib]LQRFLEHLV-NH2) |  |  | 4368 |  | 0.08 | 0.0126 nM | 1853532 | 25100 nM |  |  |  |
| CC(C)C[C@H](NC(=O)[C@H](Cc1ccccc1)NC(=O)[C@H](CCCNC(=N)N)NC(=O)[C@H](CCC(N)=O)NC(=O)[C@H](CCC(N)=O)NC(=O)[C@H](C)NC(=O)[C@H](C)NC(=O)[C@H](CCC(=O)O)NC(=O)[C@H](CCC(=O)O)NC(=O)[C@H](CCCCNC(=O)COCCOCCNC(=O)COCCOCCNC(=O)CC[C@H](NC(=O)CCCCCCCCCCCCCCCCCCC(=O)O)C(=O)O)NC(=O)[C@H](CC(C)C)NC(=O)[C@H](Cc1ccccc1)NC(=O)[C@H](CO)NC(=O)[C@@H](NC(=O)[C@H](CC(=O)O)NC(=O)[C@H](CO)NC(=O)[C@@H](NC(=O)[C@H](Cc1ccccc1)NC(=O)[C@@H](NC(=O)CNC(=O)[C@H](CCC(=O)O)NC(=O)C(C)(C)NC(=O)[C@@H](N)Cc1c[nH]cn1)[C@@H](C)O)[C@@H](C)O)C(C)C)C(=O)N[C@@H](CCC(=O)O)C(=O)N[C@@H](Cc1c[nH]cn1)C(=O)N[C@@H](CC(C)C)C(=O)N[C@H](C(N)=O)C(C)C [compound 83] (H-H[Aib]EGTFTSDVSFLK([AEEA-AEEA-γGlu-C20 diacid])EEAAQQRFLEHLV-NH2) |  |  | 9070 |  | 0.08 |  |  |  | 54828 | 0.0316 nM | 1580 nM |
| CC(C)C[C@H](NC(=O)[C@H](Cc1ccccc1)NC(=O)[C@H](CCCNC(=N)N)NC(=O)[C@H](CCC(N)=O)NC(=O)[C@@H](NC(=O)[C@H](C)NC(=O)[C@H](C)NC(=O)[C@@H](NC(=O)[C@H](CCC(=O)O)NC(=O)[C@H](CCCCNC(=O)COCCOCCNC(=O)COCCOCCNC(=O)CC[C@H](NC(=O)CCCCCCCCCCCCCCCCCCC(=O)O)C(=O)O)NC(=O)[C@H](CC(C)C)NC(=O)[C@H](CCCNC(=N)N)NC(=O)[C@H](CO)NC(=O)[C@@H](NC(=O)[C@H](CC(=O)O)NC(=O)[C@H](CO)NC(=O)[C@@H](NC(=O)[C@H](Cc1ccccc1)NC(=O)[C@@H](NC(=O)CNC(=O)[C@H](CCC(=O)O)NC(=O)C(C)(C)NC(=O)[C@@H](N)Cc1c[nH]cn1)[C@@H](C)O)[C@@H](C)O)C(C)C)[C@@H](C)O)[C@@H](C)O)C(=O)N[C@@H](CCC(=O)O)C(=O)N[C@@H](Cc1c[nH]cn1)C(=O)N[C@@H](CC(C)C)C(=O)N[C@H](C(N)=O)C(C)C [compound 26] (H-H[Aib]EGTFTSDVSRLK([AEEA-AEEA-γGlu-C20 diacid])ETAATQRFLEHLV-NH2) |  |  | 97558 |  | 0.08 |  |  |  | 4577 | 0.0126 nM | 63.1 nM |
| CC(C)C[C@H](NC(=O)[C@H](C)NC(=O)[C@H](CO)NC(=O)[C@@H](NC(=O)[C@H](CC(=O)O)NC(=O)[C@H](CO)NC(=O)[C@@H](NC(=O)[C@H](Cc1ccccc1)NC(=O)[C@@H](NC(=O)CNC(=O)[C@H](CCC(=O)O)NC(=O)C(C)(C)NC(=O)[C@@H](N)Cc1c[nH]cn1)[C@@H](C)O)[C@@H](C)O)C(C)C)C(=O)N[C@@H](CCCCNC(=O)COCCOCCNC(=O)COCCOCCNC(=O)CC[C@H](NC(=O)CCCCCCCCCCCCCCCCCCC(=O)O)C(=O)O)C(=O)N[C@@H](CCC(=O)O)C(=O)N[C@@H](CCC(=O)O)C(=O)N[C@@H](C)C(=O)NC(C)(C)C(=O)N[C@@H](CC(C)C)C(=O)N[C@@H](CCC(N)=O)C(=O)N[C@@H](CCCNC(=N)N)C(=O)N[C@@H](Cc1ccccc1)C(=O)N[C@@H](CC(C)C)C(=O)N[C@@H](CCC(=O)O)C(=O)N[C@@H](Cc1c[nH]cn1)C(=O)N[C@@H](CC(C)C)C(=O)N[C@H](C(N)=O)C(C)C [compound 148] (H-H[Aib]EGTFTSDVSALK([AEEA-AEEA-γGlu-C20 diacid])EEA[Aib]LQRFLEHLV-NH2) |  |  | 2928 |  | 0.08 | 0.0158 nM | 4094 | 63.1 nM |  |  |  |
| CC(C)C[C@H](NC(=O)[C@H](Cc1ccccc1)NC(=O)[C@H](CCCNC(=N)N)NC(=O)[C@H](CCC(N)=O)NC(=O)C(C)(C)NC(=O)[C@H](C)NC(=O)[C@H](C)NC(=O)[C@@H](NC(=O)[C@H](CCC(=O)O)NC(=O)[C@H](CCCCNC(=O)COCCOCCNC(=O)COCCOCCNC(=O)CC[C@H](NC(=O)CCCCCCCCCCCCCCCCCCC(=O)O)C(=O)O)NC(=O)[C@H](CC(C)C)NC(=O)[C@H](Cc1ccccc1)NC(=O)[C@H](CO)NC(=O)[C@@H](NC(=O)[C@H](CC(=O)O)NC(=O)[C@H](CO)NC(=O)[C@@H](NC(=O)[C@H](Cc1ccccc1)NC(=O)[C@@H](NC(=O)CNC(=O)[C@H](CCC(=O)O)NC(=O)C(C)(C)NC(=O)[C@@H](N)Cc1c[nH]cn1)[C@@H](C)O)[C@@H](C)O)C(C)C)[C@@H](C)O)C(=O)N[C@@H](CCC(=O)O)C(=O)N[C@@H](Cc1c[nH]cn1)C(=O)N[C@@H](CC(C)C)C(=O)N[C@H](C(N)=O)C(C)C [compound 25] (H-H[Aib]EGTFTSDVSFLK([AEEA-AEEA-γGlu-C20 diacid])ETAA[Aib]QRFLEHLV-NH2) |  |  | 8584 |  | 0.08 |  |  |  | 8268 | 1 nM | 7940 nM |
